The values below come from patent US20050054680A1, “Agonists and antagonists of 5h3-like receptors of invertebrates as pesticides” (priority 2001, published 2005).

Entries after “also recorded” stand apart in the source; their conditions may differ. Read-outs that look alike come from different tables or passages of the source.

For data set [1], the system named is C. elegans of the Bristol N2 strain. The data set is described as follows: Automated feeding assay (bead ingestion, pharyngeal pumping). Type of data set: in vivo, Caenorhabditis elegans. The conditions noted are these: for IC50: Caenorhabditis elegans; for Effect of 0.325 mM compound on serotonin-stimulated (0.325 mM) bead ingestion: 0.325 mM compound plus 0.325 mM serotonin; for Effect of 0.325 mM compound on bead ingestion: no added serotonin. The source says:
An automated screening assay has been developed and described in the present Applicants' co-pending International patent application No. PCT/AU00/01476 (WO 01/40500). Using the screening assay, twenty novel tropanyl ester compounds as well as tropanyl dichlorobenzoate were screened for nematicidal activity.
The assay used was essentially that described in WO 01/40500 with minor modifications. The protocol was as follows:
(1.) Plate Culture. C. elegans of the Bristol N2 strain (Brenner, 1974) were cultured at room temperature on HMS174 E. coli bacteria (Campbell et al., 1978) spread on a 150 mm diameter petri dish containing enhanced NGM 1.7% (w/v) (Avery and Horvitz, 1990) agar until a good population of adult nematodes was present, but food reserves had not been exhausted.
(2.) The nematodes were collected by washing each plate with 10 mL and then 5 mL of M9 buffer plate and filtering over a 20 μm nylon mesh (Nytal—Catalogue no. BCNY-HDO02-20) to retain adult nematodes. The nematodes from 7-8 of these 150 mm plates were collected together and placed on a 63 μm mesh filter (Nytal—product code PA-25-43) and washed with 200-250 mL of M9 buffer or MilliQ water. This procedure allows the passage of nematodes whilst retaining larger debris. Finally the nematodes were collected over a 20 μm mesh.
(3.) Adult nematodes were collected from the mesh using a pasteur pipette and allowed to settle in an eppendorf tube at 1×g for 10 minutes. This packed volume was used to calculate quantities of nematodes for experiments and assays, although nematodes were resuspended in 2-10 volumes of M9 buffer for transfer. Quantitative transfers of nematodes were performed using a Gilson Pipetman P200 or equivalent and a yellow tip with 5 mm cut off the sharp end.
(4.) Assays were performed in 24 well tissue-lture clusters (Nunc multidish). The final assay volume was 230 μL comprising the following sequential additions: • (i) M9 buffer—sufficient to bring the final volume to 230 μL • ([…]) Any other pharmacological agents—≦1.5 μL of drug in DMSO (or water) • (iv) Nematodes—150 μL of a 10% (v/v) stock in M9 • (v) Fluorescent beads—23 μL of a 1% w/v solution in M9.
Where serotonin or other pharmacological agents were omitted, the volume was adjusted with M9 buffer. Control experiments included 1.5 μL of DMSO except in the case of ondansetron, which was added from an aqueous stock.
The fluorescent beads were 1.30 μm uniformly dyed microsphere beads with a hydrophilic surface-coating. The fluorescence excitation maximum was 420 nm and the emission maximum was 485 nm (catalogue code FC04F, carboxylate-modified polystyrene/polyvinyl copolymer, manufactured and supplied by Bangs Laboratories, Inc. 9025 Technology Drive, Fishers, INDIANA 46038-2886, USA).
(5.) The nematodes were incubated for 60 minutes after the addition of the fluorescent beads at room temperature (≈21° C.) without shaking. The assay was terminated by the addition of 20 μL of 100 mM sodium azide.
(6.) Two aliquots of 100 μl each were transferred from each well of the 24 well cluster to a pair of wells in a pre-blocked mesh-bottomed plate (see below for details of the mesh-bottomed plate) and the buffer/bead suspension was immediately aspirated away through the filter mesh using a Millipore Multiscreen vacuum manifold.
(7.) A total of eight washing steps were performed. Each of the first five washes used 200 μL of 1%(w/v) sodium lauryl sulphate (SDS—Sigma) in M9 buffer. The third and fifth washes involved pipetting the solution up and down in the wells of the plate ten times each wash. The SDS washes were followed by three washes with 200 μL of M9 buffer only. At the end of each washing step, solutions were aspirated away through the mesh using a Millipore Multiscreen vacuum manifold. […]

The next data set relates to nematode C. elegans. The conditions noted are these: cited from earlier work; for Effect on pharyngeal pumping: as summarised in the background, no concentration given; for Effect on serotonin-stimulated rate of pharyngeal pumping: drug 0.325 mM, serotonin 0.325 mM.
The subject of the next data set is insects. The settings on record: in vivo; cited from earlier work.
In the next data set the test system is C. elegans. The conditions noted are these: cited from earlier work.
The next data set relates to aphid Myzus persicae. The settings on record: in vivo; cited from earlier work.
The test system of data set [2] is larvae of the lepidopteran Helicoverpa armigera. The settings on record: in vivo; cited from earlier work.
[3] abbreviates: in the presence of 1 mM serotonin, estimated from log dose response curves (FIG. 2), read-out: IC50 (inhibitory concentration 50%) for bead ingestion.
[4] abbreviates: listed as tropanyl dichlorobenzoate.

Regarding `Cc1nccn1CC1CCc2c(c3ccccc3n2C)C1=O` (centres unmarked) [ondansetron], the IC50 in data set [1] (setting [3]) was 562 µM. In the data set on nematode C. elegans, the “Effect on pharyngeal pumping” value is listed as “profoundly inhibited” and the “Effect on serotonin-stimulated rate of pharyngeal pumping” value is given as “antagonised the stimulatory effect”. In the data set with insects, the “Detrimental effects in insects” value is listed as “significant detrimental effects, including some mortality”.
`CN1[C@@H]2CC[C@H]1CC(OC(=O)c1cc(Cl)cc(Cl)c1)C2` (some centres unmarked) [MDL 72222, 3,5-dichlorobenzoic acid tropan-3-yl ester]: in data set [1], the “Effect of 0.325 mM compound on serotonin-stimulated (0.325 mM) bead ingestion” value is reported as “reverses strongly” and the “Effect of 0.325 mM compound on bead ingestion” value is “inhibits”. Also, in data set [1] (setting [4]), the “Effect of 0.325 mM compound on serotonin-stimulated (0.325 mM) bead ingestion” value was “strongly reversed” and the “Effect of 0.325 mM compound on bead ingestion” value is recorded as “reduced”. Also, the IC50 in data set [1] (in the absence of added serotonin, estimated (FIG. 2), read-out: IC50 (dose that depressed the basal bead ingestion rate by 50%)) is 11 µM. In data set [1] (setting [3]), the IC50 was 40 µM. Moreover, in the data set on nematode C. elegans, the “Effect on pharyngeal pumping” value is given as “profoundly inhibited” and the “Effect on serotonin-stimulated rate of pharyngeal pumping” value was “antagonised the stimulatory effect”. Also, in the data set on C. elegans (in vivo, listed as tropanyl dichlorobenzoate), the “Detrimental effects on C. elegans” value was “dose-dependent mortality and other detrimental effects; also recorded: dose-dependent detrimental effects, including lethality”. The “Lowest effective concentration in the chronic toxicity assay” value with C. elegans (reported previously in WO 01/61000) was ~11 µM. Further, the “Detrimental effects on Myzus persicae” value in the data set on aphid Myzus persicae is “dose-dependent detrimental effects, including lethality”. For the same compound, in data set [2], the “Effect on larval growth rates” value is on record as “reduced growth rates”. The “Detrimental effects in insects” value in the data set on insects is “significant detrimental effects, including some mortality”.
